In brackets after ≈: the same amount, converted by molar mass. Like-named read-outs stand apart in the source and are kept apart here.
Legend:
Assay in all cases: Minimum inhibitory concentration (MIC) by agar dilution
Type in all cases: cell-based
[1] = tested on: Enterobacter cloacae
Description: (§1) Briefly, MIC values are determined in unsupplemented Mueller Hinton Agar (MHA). The compounds tested are diluted serially into molten MHA at 47° C. The agar is poured into petri dishes and allowed to harden. The various bacteria used for testing are grown overnight on MHA at 35° C. and transferred to Trypticase soy broth (TSB) until a turbidity of 0.5 McFarland standard is obtained. The bacteria are diluted one to 20 in TSB and inoculated on the plates (1 μl using a Steers replicator).
as §1, with “Compounds of this invention can also be tested for in vitro antimicrobial activity using standard testing procedures such as the determination of minimum inhibitory concentration (MIC) by agar dilution as described in "Methods for Dilution Antimicrobial Susceptibility Tests for Bacteria That Grow Aerobically" (MFT) published Jan. […] Briefly,” for “Briefly,”, “(1μl” for “(1 μl”

[2] = tested on: Citerobacter freundii
Description: as §1, with “The antibacterial activity of the compounds of Formula IC was determined by using standard testing procedures such as the determination of minimum inhibitory concentration (MIC) by agar dilution as described in "Methods for Dilution Antimicrobial Susceptibility Tests for Bacteria That Grow Aerobically" (MFT) published January 1983 by the National Committee for Clinical Laboratory Standards, 771 East Lancaster Avenue, Villanova, Pa. 19084, USA. Briefly,” for “Briefly,”
(§2) Compounds of this invention can also be tested for in vitro antimicrobial activity using standard testing procedures such as the determination of minimum inhibitory concentration (MIC) by agar dilution as described in "Methods for Dilution Antimicrobial Susceptibility Tests for Bacteria That Grow Aerobically" (MFT) published Jan. 1983 by the National Committee for Clinical Laboratory Standards, 771 East Lancaster Avenue, Villanova, Penna. 19084, USA. Briefly, MIC values are determined in unsupplemented Mueller Hinton Agar (MHA). The compounds tested are diluted serially into molten MHA at 47° C. The agar is poured into petri dishes and allowed to harden. The various bacteria used for testing are grown overnight on MHA at 35° C. and transferred to Trypticase soy broth (TSB) until a turbidity of 0.5 McFarland standard is obtained. The bacteria are diluted one to 20 in TSB and inoculated on the plates (1μl using a Steers replicator). […] The MIC test results of selected of Formula B compounds of this invention are found in Tables B2-B9.

[3] = tested on: Escherichia coli; conditions: Escherichia coli
Description: (§3) The antibacterial activity of the compounds of Formula IC was determined by using standard testing procedures such as the determination of minimum inhibitory concentration (MIC) by agar dilution as described in "Methods for Dilution Antimicrobial Susceptibility Tests for Bacteria That Grow Aerobically" (MFT) published January 1983 by the National Committee for Clinical Laboratory Standards, 771 East Lancaster Avenue, Villanova, Pa. 19084, USA. Briefly, MIC values are determined in unsupplemented Mueller Hinton Agar (MHA). The compounds tested are diluted serially into molten MHA at 47° C. The agar is poured into petri dishes and allowed to harden. The various bacteria used for testing are grown overnight on MHA at 35° C. and transferred to Trypticase soy broth (TSB) until a turbidity of 0.5 McFarland standard is obtained. The bacteria are diluted one to 20 in TSB and inoculated on the plates (1 μl using a Steers replicator).
as §2

[4] = tested on: Proteus penneri; conditions: Proteus penneri
Description: as §3, §2

[5] = tested on: Streptococcus pyogenes; conditions: Streptococcus pyogenes
Description: as §3, §2

[6] = tested on: Acinetobacter calcoaceticus; conditions: Acinetobacter calcoaceticus
Description: as §3, §2

[7] = tested on: Streptococcus pneumoniae; conditions: Streptococcus pneumoniae
Description: as §3, §2

[8] = tested on: Staphylococcus epidermidis; conditions: 20 h
Description: as §3, §2

[9] = tested on: Streptococcus faecalis; conditions: Enterococcus faecalis
Description: as §3, §2

[10] = tested on: Staphylococcus aureus; conditions: Staphylococcus aureus
Description: as §3, §2

[11] = tested on: Klebsiella pneumoniae
Description: as §3, §2

[12] = tested on: Serratia marcescens; conditions: 20 h, read-out: MINIMUM INHIBITORY CONCENTRATION
Description: as §3, §2

[13] = tested on: Pseudomonas aeruginosa; conditions: Pseudomonas aeruginosa
Description: as §3, §2

[14] = 20 h, read-out: MINIMUM INHIBITORY CONCENTRATION

`O=C(O)c1cn(C23CC(C2)C3)c2nc(N3CCC(O)C3)c(F)cc2c1=O` (racemic) [No. 91, 7-(3-hydroxy-1-pyrrolidinyl)-1-(bicyclo[1.1.1]pent-1-yl)-1,4-dihydro-6-fluoro-4-oxo-1,8-naphthyridine-3-carboxylic acid] was tested, and the MIC [1, 14] was 0.25 µg/mL (≈ 0.696 µM), the MIC [2, 14] was 0.25 µg/mL (≈ 0.696 µM) and the MIC ([3]; 20 h, read-out: MINIMUM INHIBITORY CONCENTRATION, Cult No. 6674, MHA) was 0.125 µg/mL (≈ 0.348 µM). It also gave an MIC ([3]; 20 h, read-out: MINIMUM INHIBITORY CONCENTRATION, Cult No. 9451, MHA) of 0.25 µg/mL (≈ 0.696 µM), an MIC ([3]; 20 h, read-out: MINIMUM INHIBITORY CONCENTRATION, Cult No. 9855, MHA) of 0.25 µg/mL (≈ 0.696 µM) and an MIC ([3]; 20 h, read-out: MINIMUM INHIBITORY CONCENTRATION, Cult No. 9952, MHA) of 0.125 µg/mL (≈ 0.348 µM). It also gave an MIC ([4]; 20 h, read-out: MINIMUM INHIBITORY CONCENTRATION, Cult No. 9679, MHA) of 1 µg/mL (≈ 2.78 µM), an MIC ([5]; 20 h, read-out: MINIMUM INHIBITORY CONCENTRATION, Cult No. 152, MHA) of 2 µg/mL (≈ 5.57 µM) and an MIC ([6]; 20 h, read-out: MINIMUM INHIBITORY CONCENTRATION, Cult No. 12170, MHA) of 0.5 µg/mL (≈ 1.39 µM). It also gave an MIC ([7]; 20 h, read-out: MINIMUM INHIBITORY CONCENTRATION, Cult No. 41, MHA) of 1 µg/mL (≈ 2.78 µM), an MIC ([8]; read-out: MINIMUM INHIBITORY CONCENTRATION) of 0.125 µg/mL (≈ 0.348 µM) and an MIC [9, 14] of 1 µg/mL (≈ 2.78 µM). The MIC ([10]; 20 h, read-out: MINIMUM INHIBITORY CONCENTRATION, Cult No. 6685, MHA) was 0.06 µg/mL (≈ 0.167 µM), the MIC ([10]; 20 h, read-out: MINIMUM INHIBITORY CONCENTRATION, Cult No. 9213, MHA) was 0.125 µg/mL (≈ 0.348 µM) and the MIC ([10]; 20 h, read-out: MINIMUM INHIBITORY CONCENTRATION, Cult No. 9218, MHA) was 0.125 µg/mL (≈ 0.348 µM). The MIC ([10]; 20 h, read-out: MINIMUM INHIBITORY CONCENTRATION, Cult No. 9271, MHA) was 0.125 µg/mL (≈ 0.348 µM), the MIC [11, 14] was 0.5 µg/mL (≈ 1.39 µM) and the MIC [12] was 1 µg/mL (≈ 2.78 µM). The MIC ([13]; 20 h, read-out: MINIMUM INHIBITORY CONCENTRATION, Cult No. 6676, MHA) was 4 µg/mL (≈ 11.1 µM), the MIC ([13]; 20 h, read-out: MINIMUM INHIBITORY CONCENTRATION, Cult No. 9191, MHA) was 2 µg/mL (≈ 5.57 µM) and the MIC ([13]; 20 h, read-out: MINIMUM INHIBITORY CONCENTRATION, Cult No. 12120, MHA) was 2 µg/mL (≈ 5.57 µM).
In the case of `C#CC(C)(C)n1cc(C(=O)O)c(=O)c2cc(F)c(N3CCNCC3)c(F)c21.CS(=O)(=O)O` [A, (+,-)-6,8-difluoro-1,4-dihydro-1-(1,1-dimethyl-2-propynyl)-4-oxo-7-(1-piperazinyl)-3-quinolinecarboxylic acid methanesulfonate], the MIC ([1]; UC9382, 20 h, read-out: Minimum Inhibitory Concentration) is reported as 0.25 µg/mL, the MIC ([2]; Citrobacter freundii, UC3507, 20 h, read-out: Minimum Inhibitory Concentration) is reported as 0.25 µg/mL and the MIC ([3]; UC6674, 20 h, read-out: Minimum Inhibitory Concentration, E. coli UC 6674, Table CI) is reported as 0.25 µg/mL. It also gave an MIC ([3]; UC9451, 20 h, read-out: Minimum Inhibitory Concentration, E. coli UC 9451, Table CI) of 0.25 µg/mL, an MIC ([3]; UC9855, 20 h, read-out: Minimum Inhibitory Concentration, E. coli UC 9855, Table CI) of 0.25 µg/mL and an MIC ([3]; UC9952, 20 h, read-out: Minimum Inhibitory Concentration, E. coli UC 9952, Table CI) of 0.25 µg/mL. For the same compound, the MIC ([4]; UC9679, 20 h, read-out: Minimum Inhibitory Concentration, P. penneri UC 9679, Table CI) was 1 µg/mL, the MIC ([5]; UC152, 20 h, read-out: Minimum Inhibitory Concentration, S. pyogenes UC 152, Table CI) was 8 µg/mL and the MIC ([6]; UC12170, 20 h, read-out: Minimum Inhibitory Concentration, A. calcoaceticus UC 12170, Table CI) was 1 µg/mL. For the same compound, the MIC ([7]; UC41, 20 h, read-out: Minimum Inhibitory Concentration, S. pneumoniae UC 41, Table CI) was 8 µg/mL, the MIC ([8]; read-out: Minimum Inhibitory Concentration) was 1 µg/mL and the MIC ([9]; UC9217, 20 h, read-out: Minimum Inhibitory Concentration) was 8 µg/mL. For the same compound, the MIC ([10]; UC6685, 20 h, read-out: Minimum Inhibitory Concentration, S. aureus UC 6685, Table CI) was 2 µg/mL, the MIC ([10]; UC9213, 20 h, read-out: Minimum Inhibitory Concentration, S. aureus UC 9213, Table CI) was 4 µg/mL and the MIC ([10]; UC9218, 20 h, read-out: Minimum Inhibitory Concentration, S. aureus UC 9218, Table CI) was 2 µg/mL. It also gave an MIC ([10]; UC9271, 20 h, read-out: Minimum Inhibitory Concentration, S. aureus UC 9271, Table CI) of 2 µg/mL, an MIC ([11]; UC12081, 20 h, read-out: Minimum Inhibitory Concentration) of 0.5 µg/mL and an MIC [12] of 2 µg/mL. It also gave an MIC ([13]; UC6676, 20 h, read-out: Minimum Inhibitory Concentration, Ps. aeruginosa UC 6676, Table CI) of 4 µg/mL, an MIC ([13]; UC9191, 20 h, read-out: Minimum Inhibitory Concentration, Ps. aeruginosa UC 9191, Table CI) of 2 µg/mL and an MIC ([13]; UC12120, 20 h, read-out: Minimum Inhibitory Concentration, Ps. aeruginosa UC 12120, Table CI) of 2 µg/mL.

— patent US5262417A, “Antibacterial quinolone compounds” (The Upjohn Company, priority 1991, dated 1993)
